In ChEMBL document CHEMBL1136192, “Cyclin-dependent kinase 4 inhibitors as a treatment for cancer. Part 2: identification and optimisation of substituted 2,4-bis anilino pyrimidines” (Bioorg Med Chem Lett, 2003) one finds IC50 data, which are given here for 29 compounds.

One may read the IC50 as the midpoint of a concentration-inhibition curve. A lower IC50 goes with greater potency in that assay.

Assay [1] deals with Cyclin-dependent kinase 2 (Homo sapiens, UniProt P24941). Kind of assay: Inhibitory concentration against cyclin-dependent kinase 2.
Assay [2] addresses Cyclin-dependent kinase 4 (Homo sapiens, UniProt P11802). As to the kind of experiment: Inhibitory concentration against cyclin-dependent kinase 4.

Sequence of Cyclin-dependent kinase 4 (P11802 whole entry): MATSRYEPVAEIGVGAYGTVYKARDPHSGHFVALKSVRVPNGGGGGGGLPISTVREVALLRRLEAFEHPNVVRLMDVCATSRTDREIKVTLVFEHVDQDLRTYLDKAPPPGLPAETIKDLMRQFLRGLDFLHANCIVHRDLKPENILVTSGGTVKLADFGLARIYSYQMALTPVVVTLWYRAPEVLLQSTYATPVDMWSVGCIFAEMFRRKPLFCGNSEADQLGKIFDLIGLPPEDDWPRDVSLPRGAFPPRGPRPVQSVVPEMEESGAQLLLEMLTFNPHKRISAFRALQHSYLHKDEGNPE

Turning to `CN(C)CC(O)COc1ccc(Nc2nccc(Nc3ccccc3F)n2)cc1` (stereo not drawn), the values for the IC50 in assay [1] and in assay [2] were 7 µM and 1 µM, respectively.
The corresponding values for `Cc1cnc(Nc2ccc(OCC(O)CN(C)C)cc2)nc1Nc1ccccc1` (stereo not drawn) are 8 µM and 0.8 µM.
Turning to `CN(C)CC(O)COc1ccc(Nc2ncc(Br)c(N(CCCC(F)(F)F)c3ccccc3)n2)cc1` (stereo not drawn), the IC50 in assay [1] is 0.2 µM; in assay [2] it was 0.01 µM.
As to `Cc1ccc(Nc2ccnc(Nc3ccc(OCC(O)CN(C)C)cc3)n2)cc1` (stereo not drawn), the IC50 worked out at 26 µM in assay [1] and 2 µM in assay [2].
The corresponding values for `CN(C)CC(O)COc1ccc(Nc2nccc(N(Cc3ccccc3)c3cc(Cl)ccc3Cl)n2)cc1` (stereo not drawn) are over 10 µM and 1 µM.
Consider `CN(C)CC(O)COc1ccc(Nc2nccc(N(CC#N)c3cc(Cl)ccc3Cl)n2)cc1` (stereo not drawn), for which the IC50 in assay [1] is 0.7 µM; in assay [2], 0.1 µM.
With `Cc1ccc(F)c(Nc2cc(Nc3ccc(OCC(O)CN(C)C)cc3)ncn2)c1` (stereo not drawn), the figures for the IC50 in assay [1] and in assay [2] were 81 µM and 4 µM, respectively.
As for `CN(C)CC(O)COc1ccc(Nc2nccc(Nc3ccc(Cl)cc3)n2)cc1` (stereo not drawn), the IC50 in assay [1] was 18 µM; in assay [2] it was 1 µM.
The corresponding values for `CN(C)CC(O)COc1ccc(Nc2nccc(Nc3ccccc3C#N)n2)cc1` (stereo not drawn) are 4 µM and 2 µM.
The corresponding values for `COc1ccc(Nc2cc(Nc3ccc(OCC(O)CN(C)C)cc3)ncn2)cc1` (stereo not drawn) are over 100 µM and 57 µM.
On the same counts, the results for `CN(C)CC(O)COc1ccc(Nc2nccc(Nc3ccccc3)n2)cc1` (stereo not drawn) are 34 µM and 2 µM.
As for `Cc1ccc(Cl)c(Nc2ccnc(Nc3ccc(OCC(O)CN(C)C)cc3)n2)c1` (stereo not drawn), the half-inhibitory concentration (IC50) turned out to be 5 µM in assay [1] and 2 µM in assay [2].
The corresponding values for `CN(C)CC(O)COc1ccc(Nc2nccc(Nc3cccc(Cl)c3)n2)cc1` (stereo not drawn) are 5 µM and 2 µM.
The corresponding values for `Cc1ccc(Nc2cc(Nc3ccc(OCC(O)CN(C)C)cc3)ncn2)cc1` (stereo not drawn) are over 100 µM and 25 µM.
With `CN(C)CC(O)COc1ccc(Nc2nccc(Nc3ccccc3Br)n2)cc1` (stereo not drawn), the IC50 in assay [1] was found to be 7 µM; in assay [2] it was 1 µM.
On the same counts, the results for `CN(C)CC(O)COc1ccc(Nc2nccc(Nc3cc(Cl)ccc3Cl)n2)cc1` (stereo not drawn) are 1 µM and 0.8 µM.
On the same counts, the results for `CN(C)CC(O)COc1ccc(Nc2nccc(N(CCCC(F)(F)F)c3cc(Cl)ccc3Cl)n2)cc1` (stereo not drawn) are 12 µM and 0.2 µM.
`CN(C)CC(O)COc1ccc(Nc2nccc(Nc3cc(C(F)(F)F)ccc3F)n2)cc1` (stereo not drawn): the IC50 stood at 1 µM in assay [1] and 0.6 µM in assay [2].
The corresponding values for `CN(C)CC(O)COc1ccc(Nc2nccc(Nc3ccccc3Cl)n2)cc1` (stereo not drawn) are 6 µM and 1 µM.
The corresponding values for `CN(C)CC(O)COc1ccc(Nc2ncc(F)c(Nc3ccccc3)n2)cc1` (stereo not drawn) are over 10 µM and 0.3 µM.
In the case of `CN(C)CC(O)COc1ccc(Nc2cc(Nc3ccc(Cl)cc3)ncn2)cc1` (stereo not drawn), the results for the concentration for half-maximal inhibition (IC50) in assay [1] and in assay [2] were over 100 µM and 41 µM, respectively.
With `COc1ccccc1Nc1ccnc(Nc2ccc(OCC(O)CN(C)C)cc2)n1` (stereo not drawn), the concentration for half-maximal inhibition (IC50) in assay [1] is 15 µM; in assay [2], 19 µM.
The corresponding values for `CN(C)CC(O)COc1ccc(Nc2nccc(N(CCC#N)c3cc(Cl)ccc3Cl)n2)cc1` (stereo not drawn) are 3 µM and 0.3 µM.
The corresponding values for `COc1ccc(Nc2ccnc(Nc3ccc(OCC(O)CN(C)C)cc3)n2)cc1` (stereo not drawn) are 36 µM and 2 µM.
For `C#CCN(c1ccnc(Nc2ccc(OCC(O)CN(C)C)cc2)n1)c1cc(Cl)ccc1Cl` (stereo not drawn), the 50% inhibitory concentration (IC50) in assay [1] worked out at 2 µM; in assay [2], 0.2 µM.
For `Cc1ccc(F)c(Nc2ccnc(Nc3ccc(OCC(O)CN(C)C)cc3)n2)c1` (stereo not drawn), the concentration for half-maximal inhibition (IC50) was 2 µM in assay [1] and 0.7 µM in assay [2].
Turning to `Cc1ccc(Cl)c(Nc2cc(Nc3ccc(OCC(O)CN(C)C)cc3)ncn2)c1` (stereo not drawn), the results for the IC50 in assay [1] and in assay [2] were 22 µM and 2 µM, respectively.
The corresponding values for `CN(C)CC(O)COc1ccc(Nc2ncc(Cl)c(Nc3ccccc3)n2)cc1` (stereo not drawn) are 0.5 µM and 0.1 µM.
The corresponding values for `CN(C)CC(O)COc1ccc(Nc2ncc(Br)c(Nc3ccccc3)n2)cc1` (stereo not drawn) are 0.3 µM and 0.1 µM.
